Results from ChEMBL document CHEMBL1130881, “Novel imidazole derivatives with subtype-selective antimuscarinic activity (1)” (Bioorg Med Chem Lett, 1998).

Each molecule was assayed against Muscarinic acetylcholine receptor M3 (Cavia porcellus) (UniProt Q8VH26) (assay: Antimuscarinic activity was evaluated against muscarinic M3 receptor in Guinea-Pig ileum).
Assay type: tissue-based

Muscarinic acetylcholine receptor M3 (Cavia porcellus), sequence (Q8VH26 1-587): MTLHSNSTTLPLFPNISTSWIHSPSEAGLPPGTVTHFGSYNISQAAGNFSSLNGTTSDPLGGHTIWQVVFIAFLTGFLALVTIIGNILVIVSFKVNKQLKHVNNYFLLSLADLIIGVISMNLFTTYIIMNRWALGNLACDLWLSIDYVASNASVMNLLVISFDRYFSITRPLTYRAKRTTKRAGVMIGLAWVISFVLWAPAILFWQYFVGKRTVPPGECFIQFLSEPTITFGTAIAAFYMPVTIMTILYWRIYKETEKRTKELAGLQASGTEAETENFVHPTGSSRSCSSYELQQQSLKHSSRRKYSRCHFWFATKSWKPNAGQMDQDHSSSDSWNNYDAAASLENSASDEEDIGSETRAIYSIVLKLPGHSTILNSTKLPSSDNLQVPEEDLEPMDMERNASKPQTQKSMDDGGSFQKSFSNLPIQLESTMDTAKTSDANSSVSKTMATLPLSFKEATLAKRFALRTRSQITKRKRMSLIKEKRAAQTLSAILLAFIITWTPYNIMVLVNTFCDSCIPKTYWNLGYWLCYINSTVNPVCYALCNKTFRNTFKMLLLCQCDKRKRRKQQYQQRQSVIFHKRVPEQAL

Compound | Kb
CCN(CC)CCC(c1ccccc1)c1ccccc1 | 0.197 µM
NC(=O)C(CCN1CCCC1)(c1ccccc1)c1ccccc1 | 0.00559 µM
CC(C)(C)NCCC(c1ccccc1)c1ccccc1 | 0.792 µM
Cc1cn(CCC(C(N)=O)(c2ccccc2)c2ccccc2)cn1 | 0.0101 µM
CC(C)c1nccn1CCC(C(N)=O)(c1ccccc1)c1ccccc1 | 0.0018 µM
N#CC(CCN1CCCC1)(c1ccccc1)c1ccccc1 | 0.0657 µM
CCc1ncn(CCC(C(N)=O)(c2ccccc2)c2ccccc2)c1CC | 0.00398 µM
c1ccc(C(CCN2CCCCC2)c2ccccc2)cc1 | 0.0696 µM
Cc1nccn1CCC(C(N)=O)(c1ccccc1)c1ccccc1 | 0.00032 µM
NC(=O)C(CCn1cnc2ccccc21)(c1ccccc1)c1ccccc1 | 2.13 µM
CC(CC(c1ccccc1)c1ccccc1)NC(C)(C)C (centres undefined) | 0.0677 µM
CCCc1nccn1CCC(C(N)=O)(c1ccccc1)c1ccccc1 | 0.177 µM
Cc1ncn(CCC(C(N)=O)(c2ccccc2)c2ccccc2)c1C | 0.0027 µM
CCc1nccn1CCC(C(N)=O)(c1ccccc1)c1ccccc1 | 0.0781 µM
CC(C)(C)c1nccn1CCC(C(N)=O)(c1ccccc1)c1ccccc1 | 0.0302 µM
c1ccc(C(CCn2ccnc2)c2ccccc2)cc1 | 0.0891 µM
CCCc1ncn(CCC(C(N)=O)(c2ccccc2)c2ccccc2)c1CCC | 0.1 µM
NC(=O)C(CCn1ccnc1)(c1ccccc1)c1ccccc1 | 0.00507 µM
Cc1cncn1CCC(C(N)=O)(c1ccccc1)c1ccccc1 | 0.00086 µM
